US11326183B2, “VCN enhancer compositions and methods of using the same” (priority 2016, dated 2022)
“Also recorded” adds a separate entry of the source.

Columns and labels:
hCD34+ cells [1] = test: VCN of pooled colonies after 14 day MethoCult culture, staurosporine and/or PGE2; type: cell-based, human; conditions: for VCN compared to controls or other treatments, in words: mean VCN
Experimental: (§1) Washed cells were resuspended in 200 μL SCGM and then transferred to 3 mL aliquots of cytokine-supplemented methylcellulose (for example, Methocult M4434 Classic). 1.1 mL was then transferred to parallel 35-mm tissue culture dishes using a blunt 16-gauge needle. Dishes were maintained in a standard humidified tissue culture incubator for 12-16 days and colonies were scored for size, morphology, and cellular composition. Individual colonies were then picked for subsequent VCN analysis or the contents of an entire 35-mm dish were pooled and then subject to VCN analysis.
Cells were then transduced with LVV and cultured in the presence of protamine sulfate (standard), PGE2 or vehicle. After transduction, cells were washed and cultured in MethoCult for 14 days.
After a 14 day MethoCult culture, pooled colonies were collected and analyzed for VCN. Mean VCN data is shown. […] FIG. 8.

hCD34+ cells [2] = test: Transgene (LNGFR) expression by flow cytometry; type: cell-based, human; conditions: 200 nM staurosporine 2 hours, 24 hour transduction
hCD34+ cells [3] = test: Methylcellulose assay for CFC formation (stem cell potential); type: cell-based, human
Experimental: as §1
For the 2 hour incubation, cells were subsequently washed and cultured in transduction media for the remaining 24 hours. Following the cultures, cells were plated in methylcellulose for CFC formation. […] FIG. 2B. […] FIG. 2A.

hCD34+ cells [4] = test: BlaM (BLAM) assay for assessment of viral entry; type: cell-based, human
Experimental: Cells were transduced for 2 hours in the presence of F108, PGE2, and a virus encoding a β-lactamase-Vpr fusion protein. Following transduction, cells were washed and incubated with a fluorescent β-lactamase substrate for 30-60 minutes. β-lactamase cleavage was analyzed by flow cytometry: uncleaved substrate is GFP^+, and cleavage of the fluorescent β-lactamase results in a Pacific Blue^+ signal. β-lactamase cleavage indicates lentivirus entry into the cell. See also, Cavrois et al. Nature Biotechnology. 2002.
Cells transduced for 2 hours were then subjected to staining and flow analysis for the BLAM assay to quantify viral entry. […]. FIGS. 1B and 1C.

[5] = tested on: bulk hCD34+ cells and CD34+CD38LoCD90+CD45RA- phenotypic stem cells; test: Single-cell PCR assay of transduction efficiency in bulk and CD34+CD38LoCD90+CD45RA- cells; type: cell-based, human; conditions: 400 nM or 800 nM staurosporine 2 hours
Experimental: (§2) Washed cells were resuspended in 2 mL Stem Cell Growth Medium (SCGM)+cytokines and transferred to a standard 12-well non-adherent tissue culture plate. Cells were maintained for an additional 6 days in a standard humidified tissue culture incubator (5% CO2) and then subjected to Vector Copy Number (VCN) analysis or single-cell nested PCR to determine transduction efficiency. Both VCN and the single-cell nested PCR assay were performed with qPCR using primers and probes specific to both the vector and an endogenous control gene. VCN was determined by dividing the amount of vector signal by the amount of the endogenous control gene. For the single-cell nested PCR assay, wells that contained a cell positive for the endogenous control gene and wells that contained a marked cell positive for both the vector and the endogenous control gene were enumerated, and the proportion of marked cells, or transduction efficiency, was calculated.
Thawed hCD34+ cells were stained with antibodies against cell surface markers for phenotypic HSCs (CD34^+CD38^LoCD90^+CD45^RA− cells) and then sorted using a Sony Cell Sorter. […] After culture, the cells were then single-cell sorted into 96 well plates and analyzed via the single-cell PCR assay to assess transduction efficiency, the percent lentiviral vector positive cells. […]

[6] = tested on: long-term NSG repopulating cells; test: VCN of bone marrow from NSG mice 4 months post-transplant of transduced hCD34+ cells; type: in vivo
Source text: (§3) HSCs transduced with lentivirus were transplanted into NOD/SCID Gamma (NSG) mice to assess the effect of candidate compounds on viral transduction of human long-term hematopoietic stem cells. Transduced cells were washed and resuspended in phosphate-buffered saline (PBS) and transplanted into the tail vein of sub-myeloablated adult NSG mice, with minimal residual toxicity. Mice were housed in a pathogen-free environment per standard IACUC animal care guidelines. At 4 months post-transplant bone marrow (BM) was harvested from both femurs and analyzed for both VCN and engraftment of human cells by staining with an anti-hCD45 antibody (BD #561864) followed by flow cytometry analysis.
(§4) Following transduction, cells were washed and injected into busulfan-treated NSG mice. Aliquots of the drug product were retained for in vitro analysis. […] FIG. 4A. […] FIG. 4A. After 4 months in vivo, NSG mice were sacrificed and BM was collected and analyzed for VCN of the engrafted hCD34+ cells. There was an overall decrease in mean VCNs across all groups in vivo as compared to the drug product VCNs, indicating higher transduction of short-term progenitors rather than long-term stem cells. FIG. 4B.

hCD34+ cells [7] = test: Vector copy number (VCN) analysis of hCD34+ cells transduced with LVV after staurosporine treatment; type: cell-based, human
Experimental: as §2, §1
Cells transduced for 2 hours were then subjected to staining and flow analysis for the BLAM assay to quantify viral entry. […] FIG. 1A. […] FIGS. 1B and 1C.
These seven cell lots had been prospectively classified as low, medium, or high transducing cell lots. A low transducing cell lot is defined here as having a mean VCN <0.5 in vehicle-treated transductions, a medium transducing cell lot is defined here as having a mean 0.5<VCN<1, and a high transducing cell lot is defined here as having a mean VCN>1. […] This property of leveling average VCN among cell lots with different transducibility could aid in controlling variability between cell lots and normalizing drug product VCNs.
as §4

hCD34+ grafts = test: Non-restrictive insertion site analysis (polyclonality)
Source text: Identified insertion sites were mapped within gene regions to examine the lentiviral integration profile. […] Insertion sites were also quantified as the percent of total reads. The top 10 clones are shown for each treatment.
Insertion sites were pooled for each group and quantified as the percent of total reads. The top 10 clones are shown for each treatment.

[8] = tested on: transplanted hCD34+ cells; test: Engraftment and differentiation of transplanted hCD34+ cells in NSG mice (flow cytometry of BM); type: in vivo; conditions: BM four months post-transplant
Source text: as §3
Cells were stained with an antibody cocktail recognizing various cell surface markers (CD45, CD33, CD3, CD19) and analyzed via flow cytometry. […] FIG. 5B.

Structure (SMILES): CCCCC[C@H](O)/C=C/[C@H]1[C@H](O)CC(=O)[C@@H]1C/C=C\CCCC(=O)O [PGE2, prostaglandin E2]
- VCN compared to controls or other treatments, in words (hCD34+ cells [1]): increased VCN compared to controls

Structure (SMILES): CN[C@@H]1C[C@H]2O[C@@](C)([C@@H]1OC)n1c3ccccc3c3c4c(c5c6ccccc6n2c5c31)C(=O)NC4 [staurosporine, Staurosporine]
- fold increase in transgene expression (LNGFR) (hCD34+ cells [2]): 1.5 fold
- colony formation ability (hCD34+ cells [3]; 2 hour exposure, 200 nM, 400 nM or 800 nM): retain colony formation ability and do not significantly differ from control-treated cells; also recorded: did not affect the ability of the hCD34^+ cells to form colonies
- colony-forming potential (hCD34+ cells [3]; 24 hour exposure, 800 nM): few hCD34^+ cells that retain colony-forming potential
- decrease in CFC formation (hCD34+ cells [3]; 24 hour exposure, lower doses (200 nM, 400 nM)): > 50%
- reduction in CFC formation (hCD34+ cells [3]; 24 hours exposure, 3 different concentrations of staurosporine): > 50%
- increase in the amount of cells containing LVV compared to vehicle-treated controls (hCD34+ cells [4]; 200 nM staurosporine 2 hours, washed, 2 hour transduction): ~50%
- percentage of cells containing vector by BLAM assay, fold higher than controls (hCD34+ cells [4]; staurosporine-treated hCD34+ cells, two MOIs): 1.5 fold
- transduction efficiency (percent lentiviral vector positive cells) versus standard transduction [5]: increased transduction efficiency compared to standard transduction conditions; also recorded: higher than the transduction efficiency of the cells transduced using the standard transduction protocol
- fold improvement in mean in vivo VCN of BM relative to vehicle ([6]; 400 nM staurosporine prior to transduction): 3 fold
- fold improvement in mean in vivo VCN of BM relative to vehicle ([6]; 800 nM staurosporine prior to transduction): 4 fold
- VCN compared to controls or other treatments, in words (hCD34+ cells [1]): increased VCN compared to controls; also recorded: outperforms PGE2 addition
- fold increase in VCN (hCD34+ cells [1]; staurosporine two hours before transduction): 3 fold
- fold increase in (mean) VCN versus control (hCD34+ cells [7]; 200 nM staurosporine 2 hours, washed, 24 hour transduction): 2 fold
- mean VCN of the drug product, in words (hCD34+ cells [7]; 400 nM staurosporine 2 hours): did not significantly improve the mean VCN
- mean VCN of the drug product, in words (hCD34+ cells [7]; 800 nM staurosporine): VCN enhancement
- fold improvement in mean VCN of the drug product (pooled colonies) versus vehicle (hCD34+ cells [7]; 800 nM staurosporine 2 hours): approximately 2 fold
- fold increase in average VCN (hCD34+ cells [7]; 800 nM staurosporine 2 hours, high transducing cell lots (mean VCN>1)): 1.2 fold
- fold increase in average VCN (hCD34+ cells [7]; 800 nM staurosporine 2 hours, low transducing cell lots (mean VCN <0.5)): 2.3 fold
- fold increase in average VCN (hCD34+ cells [7]; 800 nM staurosporine 2 hours, medium transducing cell lots (0.5<VCN<1)): 1.5 fold
- effect of increasing staurosporine concentration on VCN enhancement (hCD34+ cells [7]; 200, 400, 800 nM, high transducing cell lots): plateaus
- effect of increasing staurosporine concentration on mean VCN (hCD34+ cells [7]; 200, 400, 800 nM, low and medium transducing cell lots): trend for increasing mean VCN
- clonality of engrafted cells (insertion site profile) (hCD34+ grafts; BM four months post-transplant, top 10 clones): polyclonal insertion site profile similar to vehicle treated cells
- lentiviral integration profile of transduced cells (hCD34+ grafts; pre-transplant drug product, insertion sites mapped within gene regions): did not appear to skew
- clonality of pre-transplantation samples (hCD34+ grafts; pre-transplant drug product, top 10 clones as percent of total reads): polyclonality
- effect of staurosporine treatment on engraftment ([8]; 400 nM or 800 nM): does not affect engraftment; also recorded: no statistically significant effect
- proportion of myeloid (CD33+) or lymphoid (CD3+ or CD19+) cells / differentiation capabilities ([8]; 400 nM or 800 nM): is maintained; also recorded: no difference
- level of engraftment of hCD34+ cells ([8]; all groups (vehicle, 400 nM, 800 nM staurosporine)): 30-40%
